Our source for the EC50 and IC50 values is patent publication US7932262B2 (Novartis AG, priority 2006, dated 2011).

The subject of assay [1] is A2780 cells. In words: Cell Proliferation Assay (Cell Titer Glo), A2780. It is filed as cell-based. The conditions noted are these: Homo sapiens; cell proliferation, A2780 cells; read-out: CPEC50 A2780. The method, boiled down:
(§1)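 Following a 3-day compound exposure (37° C., 5% CO2) of A2780 or PC3MM cells plated at 1000 per well, viability was measured by Cell Titer Glo luminescence in fresh medium, read 10 min after reagent addition.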

In assay [2] the target is T1, PDK1 kinase (Homo sapiens, UniProt O15530).
T1 sequence (O15530 1-556): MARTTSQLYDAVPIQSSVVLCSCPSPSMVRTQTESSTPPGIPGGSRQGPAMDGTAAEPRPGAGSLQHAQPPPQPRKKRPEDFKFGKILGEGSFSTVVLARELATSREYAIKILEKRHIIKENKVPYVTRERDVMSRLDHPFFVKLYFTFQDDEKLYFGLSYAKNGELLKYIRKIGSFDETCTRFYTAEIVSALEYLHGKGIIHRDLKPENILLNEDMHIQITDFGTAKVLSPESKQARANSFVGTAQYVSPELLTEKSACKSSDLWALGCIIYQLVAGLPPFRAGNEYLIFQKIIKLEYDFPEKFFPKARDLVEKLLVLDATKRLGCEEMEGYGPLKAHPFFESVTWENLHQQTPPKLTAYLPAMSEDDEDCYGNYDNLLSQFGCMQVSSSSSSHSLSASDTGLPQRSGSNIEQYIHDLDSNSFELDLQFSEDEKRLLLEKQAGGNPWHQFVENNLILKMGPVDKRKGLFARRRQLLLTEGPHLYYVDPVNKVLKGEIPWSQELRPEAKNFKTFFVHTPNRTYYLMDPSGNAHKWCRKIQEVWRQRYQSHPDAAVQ
Put plainly: PDK1 Kinase Alpha Screen Assay. It is filed as biochemical. Conditions: PDK1 Kinase Alpha Screen Assay; read-out: PDK1 IC50. Summed up: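 AlphaScreen readout: phospho-peptide captured by phospho-(Ser/Thr) PKA substrate antibody (0.3 mg/ml) on protein A acceptor beads, biotin peptide on streptavidin donor beads (25 μg/ml each), overnight at room temperature. Kinase step used 50 nM PDK1-4 peptide, 10 uM ATP, 3-18 hours.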

Assay [3] concerns PC3MM cells. In words: Cell Proliferation Assay (Cell Titer Glo), PC3MM. It counts as cell-based. Conditions: cell proliferation, PC3MM cells; read-out: CPEC50 PC3MM. Summed up: as §1
(In ATP-based viability assays light output follows the ATP content of the culture.)

Take `COCCNC(=O)c1cccc2cnc(Nc3ccc(S(N)(=O)=O)cc3)nc12` [Compound 761, N-(2-methoxyethyl)-2-(4-sulfamoylphenylamino)quinazoline-8-carboxamide]: the EC50 was under 5 µM in assay [1] and 5 to 10 µM in assay [3]. Besides, the IC50 (usually the concentration that gives 50% inhibition) in assay [2] is under 5 µM.

Take `NS(=O)(=O)c1ccc(Nc2ncc3cccc(C(=O)NCCN4CCCC4)c3n2)cc1` [Compound 762, N-(2-(pyrrolidin-1-yl)ethyl)-2-(4-sulfamoylphenylamino)quinazoline-8-carboxamide]: the EC50 was under 5 µM in assay [1] and 5 to 10 µM in assay [3]. The IC50 in assay [2] is under 5 µM.

With `COCCN1CCN(C(=O)c2ccc3cnc(Nc4ccc(S(N)(=O)=O)cc4)nc3c2)CC1` [Compound 764, 4-(7-(4-(2-methoxyethyl)piperazine-1-carbonyl)quinazolin-2-ylamino)benzenesulfonamide], the EC50 in assay [1] fell in the range of 5 to 10 µM; in assay [3], 10 to 25 µM. Besides, the IC50 in assay [2] fell in the range of 10 to 25 µM.

`COc1cc(-c2cccc3cnc(Nc4ccc(S(N)(=O)=O)cc4)nc23)c(Cl)cn1` [Compound 765, 4-(8-(5-chloro-2-methoxypyridin-4-yl)quinazolin-2-ylamino)benzenesulfonamide]: the EC50 in assay [1] and in assay [3] was under 5 µM throughout. Moreover, the IC50 in assay [2] was under 5 µM.

Take `CC(C)N1CCN(C(=O)c2ccc3cnc(Nc4ccc(S(N)(=O)=O)cc4)nc3c2)CC1` [Compound 766, 4-(7-(4-isopropylpiperazine-1-carbonyl)quinazolin-2-ylamino)benzenesulfonamide]: the EC50 in assay [1] lay in the range of 5 to 10 µM; in assay [3] it was 10 to 25 µM. Also, the IC50 in assay [2] is under 5 µM.

As to `CN1CCC(NC(=O)c2ccc3cnc(Nc4ccc(S(N)(=O)=O)cc4)nc3c2)CC1` [Compound 767, N-(1-methylpiperidin-4-yl)-2-(4-sulfamoylphenylamino)quinazoline-7-carboxamide], the EC50 in assay [1] is 5 to 10 µM; in assay [3], under 5 µM. Also, in assay [2], the concentration for half-maximal inhibition (IC50) is under 5 µM.

For `NS(=O)(=O)c1ccc(Nc2ncc3cccc(C(=O)N4CCOCC4)c3n2)cc1` [Compound 768, 4-(8-(morpholine-4-cartbonyl)quinazolin-2-ylamino)benzenesulfonamide], the EC50 in assay [1] and in assay [3] was 5 to 10 µM each time. The IC50 in assay [2] was 5 to 10 µM.

Turning to `CN1CCN(C(=O)c2cccc3cnc(Nc4ccc(S(N)(=O)=O)cc4)nc23)CC1` [Compound 769, 4-(8-(4-methylpiperazine-1-carbonyl)quinazolin-2-ylamino)benzenesulfonamide], the EC50 was 5 to 10 µM in assay [1] and under 5 µM in assay [3]. Besides, the 50% inhibitory concentration (IC50) in assay [2] was under 5 µM.

Turning to `NS(=O)(=O)c1ccc(Nc2ncc3cccc(C(=O)N4CCS(=O)(=O)CC4)c3n2)cc1` [Compound 770], the EC50 in assay [1] was 5 to 10 µM; in assay [3] it was 10 to 25 µM. The IC50 in assay [2] lay in the range of 10 to 25 µM.

As to `O=S(=O)(c1cccc(Nc2ncc3cccc(OC4CCNCC4)c3n2)c1)N1CCOCC1` [Compound 773, N-(3-(morpholinosulfonyl)phenyl)-8-(piperidin-4-yloxy)quinazolin-2-amine], the EC50 in assay [1] and in assay [3] was under 5 µM in each case. The half-maximal inhibitory concentration (IC50) in assay [2] was under 5 µM.

In the case of `CC(C)N1CCC(Oc2cccc3cnc(Nc4cccc(S(=O)(=O)N5CCOCC5)c4)nc23)CC1` [Compound 774, 8-(1-isopropylpiperidin-4-yloxy)-N-(3-(morpholinosulfonyl)phenyl)quinazolin-2-amine], the EC50 in assay [1] and in assay [3] was under 5 µM throughout. Moreover, the IC50 in assay [2] was under 5 µM.

On to `CN1CCN(S(=O)(=O)c2cccc(Nc3ncc4cccc(OC5CCNCC5)c4n3)c2)CC1` [Compound 775, N-(3-(4-methylpiperazin-1-ylsulfonyl)phenyl)-8-(piperidin-4-yloxy)quinazolin-2-amine], for which the EC50 is 5 to 10 µM in assay [1] and under 5 µM in assay [3]. In addition, the half-inhibitory concentration (IC50) in assay [2] was under 5 µM.
